Data: US20260103455A1, “ULK3 INHIBITORS AND USES THEREOF” (H. LEE MOFFITT CANCER CENTER AND RESEARCH INSTITUTE, INC., priority 2022, published 2026)
Several values for one entry are separate records, joined by “and”; a condition that tells them apart may be missing. Equal values may be shown once.

What was measured:
U266 = assay: GI50 (MM cell) U266; format: cell-based; conditions: Homo sapiens, U-266
U266 PSR = assay: GI50 (MM cell) U266 PSR; format: cell-based; conditions: Homo sapiens, U-266
ULK3 [1] = biological target: T1, ULK3 (Homo sapiens, UniProt Q6PHR2); assay: DSF (ULK3) thermal shift; format: binding
T1 sequence (Q6PHR2 1-472): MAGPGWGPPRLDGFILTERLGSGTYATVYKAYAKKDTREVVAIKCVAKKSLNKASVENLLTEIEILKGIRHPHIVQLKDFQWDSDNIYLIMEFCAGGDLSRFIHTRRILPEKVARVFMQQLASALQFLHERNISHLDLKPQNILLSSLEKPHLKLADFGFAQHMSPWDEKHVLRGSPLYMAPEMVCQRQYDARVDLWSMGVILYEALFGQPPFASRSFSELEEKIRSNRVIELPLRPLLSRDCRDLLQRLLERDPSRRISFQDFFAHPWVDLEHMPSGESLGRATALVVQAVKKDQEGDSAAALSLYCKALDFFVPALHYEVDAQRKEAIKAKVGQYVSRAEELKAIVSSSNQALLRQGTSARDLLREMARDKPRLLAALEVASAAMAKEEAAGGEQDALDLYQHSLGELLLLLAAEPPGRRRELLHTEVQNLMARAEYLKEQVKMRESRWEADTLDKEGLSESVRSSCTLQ

OPM2 = assay: GI50 (MM cell) OPM2; format: cell-based; conditions: Homo sapiens, OPM-2
8226 B25 = assay: GI50 (MM cell) 8226 B25; format: cell-based
8226 = assay: GI50 (MM cell) 8226; format: cell-based
ULK3 [2] = biological target: T1, ULK3; assay: IC50 for ULK3, Reaction Biology kinase assay (32P Hotspot assay); format: biochemical
JAK2 [3] = biological target: T2, JAK2 (Homo sapiens, UniProt O60674); assay: DSF (JAK2) thermal shift; format: binding
JAK2 [4] = biological target: T2, JAK2; assay: IC50 for JAK2, Reaction Biology kinase assay (32P Hotspot assay); format: biochemical

T2 sequence (O60674 whole entry): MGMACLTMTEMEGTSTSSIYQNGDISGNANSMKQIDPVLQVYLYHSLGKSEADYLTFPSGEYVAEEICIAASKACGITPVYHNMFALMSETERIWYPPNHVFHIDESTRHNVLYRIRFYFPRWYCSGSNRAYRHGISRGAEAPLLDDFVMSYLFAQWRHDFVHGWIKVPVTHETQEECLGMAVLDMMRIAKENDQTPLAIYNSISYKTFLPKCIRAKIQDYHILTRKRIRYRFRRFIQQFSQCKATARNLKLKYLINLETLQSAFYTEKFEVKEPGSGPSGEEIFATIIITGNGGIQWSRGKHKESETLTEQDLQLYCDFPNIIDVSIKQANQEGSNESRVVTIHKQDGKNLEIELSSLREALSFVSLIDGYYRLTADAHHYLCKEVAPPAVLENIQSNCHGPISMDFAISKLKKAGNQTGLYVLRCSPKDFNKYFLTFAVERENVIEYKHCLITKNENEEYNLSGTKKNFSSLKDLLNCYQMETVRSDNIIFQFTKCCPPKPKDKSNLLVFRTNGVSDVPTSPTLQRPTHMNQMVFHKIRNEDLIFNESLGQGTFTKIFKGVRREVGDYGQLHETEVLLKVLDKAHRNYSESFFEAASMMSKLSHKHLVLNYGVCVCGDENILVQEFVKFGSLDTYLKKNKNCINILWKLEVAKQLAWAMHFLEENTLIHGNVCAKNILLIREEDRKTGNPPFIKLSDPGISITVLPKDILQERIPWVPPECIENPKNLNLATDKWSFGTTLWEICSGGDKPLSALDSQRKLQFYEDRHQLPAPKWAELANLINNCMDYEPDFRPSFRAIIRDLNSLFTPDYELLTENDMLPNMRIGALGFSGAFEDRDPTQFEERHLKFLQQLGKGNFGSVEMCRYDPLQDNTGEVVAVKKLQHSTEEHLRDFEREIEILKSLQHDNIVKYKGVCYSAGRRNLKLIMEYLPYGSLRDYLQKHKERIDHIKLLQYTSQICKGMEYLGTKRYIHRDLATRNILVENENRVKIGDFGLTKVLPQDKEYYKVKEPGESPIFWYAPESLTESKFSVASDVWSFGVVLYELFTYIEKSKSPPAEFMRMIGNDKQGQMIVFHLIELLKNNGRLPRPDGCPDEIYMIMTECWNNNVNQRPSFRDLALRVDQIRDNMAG

GI50 (U266) [nM]	GI50 (U266 PSR) [nM]	DSF (ULK3) ΔTm (° C.) (ULK3 [1])	IC50 (ULK3 [2]) [nM]	DSF (JAK2) ΔTm (° C.) (JAK2 [3]) [°C]	IC50 (JAK2 [4]) [nM]	Compound	GI50 (OPM2) [nM]	GI50 (8226 B25) [nM]	GI50 8226 [nM]
4600	870	6.8 °C				CN1CCC(c2cnc(Nc3nc(-c4ccc(C(=O)NCC(F)(F)F)cc4)c4cc[nH]c4n3)cc2F)CC1 [RF1-060, 4-(2-((4-Fluoro-5-(1-methylpiperidin-4-yl)pyridin-2-yl)amino)-7H-pyrrolo[2,3-d]pyrimidin-4-yl)-N-(2,2,2-trifluoroethyl)benzamide]	909	2930	12000
			2280	0.5		O=C(NC(CO)Cc1ccccc1)c1ccc(-c2ccnc(Nc3ccc(N4CCOCC4)cc3)n2)cc1 (stereo not drawn) [BR1-008]			
210	1580	14.3 °C and 14.4 °C	8.71		1.31	CC(NC(=O)c1ccc(-c2ccnc(Nc3ccc(N4CCOCC4)cc3)n2)cc1)C(F)(F)F (racemic) [SR8-170, (RS)-4-(2-((4-Morpholinophenyl)amino)pyrimidin-4-yl)-N-(1,1,1-trifluoropropan-2-yl)benzamide]	6700	404	290
917	2580				< 0.508	CN1CCN(Cc2ccc(Nc3nc(-c4ccc(C(=O)NCC#N)cc4)c4cc[nH]c4n3)cc2)CC1 [RF1-024, N-(Cyanomethyl)-4-(2-((4-((4-methylpiperazin-1-yl)methyl)phenyl)amino)-7H-pyrrolo[2,3-d]pyrimidin-4-yl)benzamide]	159	9490	3630
86.2	4410	15.0 °C and 11.7 °C and 14.7 °C	10.3		< 0.508	O=C(NCC(F)(F)F)c1ccc(-c2ccnc(Nc3ccc(N4CCOCC4)cc3)n2)cc1 [SR8-169, 4-(2-((4-Morpholinophenyl)amino)pyrimidin-4-yl)-N-(2,2,2-trifluoroethyl)benzamide]	15.1	214	83.5
